Tested on: HCV replicon RNA, genotype 1a (Huh-1a7 replicon cell line)
Test: HCV Replicon Assay - qRT-PCR, genotype 1a replicon
Type: cell-based, HCV (strain H77
Settings: Hepatitis C virus; HCV genotype 1a replicon, HCV RNA by qRT-PCR normalized to GAPDH RNA
Description: HCV replicon cell lines (kindly provided by R. Bartenschlager) isolated from colonies as described by Lohman et al. (Lohman et al. (1999) Science 285: 110-113, expressly incorporated by reference in its entirety) and used for all experiments. One of the HCV replicon cell lines (strain Conl, genotype 1b) has the nucleic acid sequence set forth in EMBL Accession No.: AJ242651, the coding sequence of which is from nucleotides 1801 to 8406. Another replicon cell line (strain H77, genotype 1a) was constructed as described by Yi et al. (Yi et al. (2004) Journal of Virology 78(15):7904-15). The coding sequences of the published HCV replicons were synthesized and subsequently assembled in plasmids using standard molecular biology techniques.
One replicon cell line (“SGR 11-7”) stably expresses HCV replicon RNA, genotype 1b, which consists of (i) the HCV 5′UTR fused to the first 12 amino acids of the capsid protein, (ii) the neomycin phosphotransferase gene (neo), (iii) the IRES from encephalomyocarditis virus (EMCV), and (iv) HCV NS2 to NS5B genes and the HCV 3′UTR. Another replicon cell line (“Huh-1a7”) described by Yi et al. (Yi et al. (2004) Journal of Virology 78(15):7904-15, expressly incorporated by reference in its entirety) stably expresses HCV replicon RNA, genotype 1a, which consists of (i) the HCV 5′UTR fused to the first 12 amino acids of the capsid protein, (ii) the HIV tat protein, (iii) the neomycin phosphotransferase gene (neo), (iv) the IRES from encephalomyocarditis virus (EMCV), and (v) HCV NS3 to NS5B genes that harbor cell culture adaptive mutations (Q1067R, K1691R, S2204I) and the HCV 3′UTR. […]
EC50 values of single agent compounds were determined by HCV RNA detection using quantitative RT-PCR, according to the manufacturer's instructions, with a TAQMAN® One-Step RT-PCR Master Mix Reagents Kit (Cat# AB 4309169, Applied Biosystems) on an ABI Model 7500 thermocycler. EC50 values of combinations are similarly determined by HCV RNA detection using quantitative RT-PCR. The TAQMAN primers to use for detecting and quantifying HCV RNA obtained from Integrated DNA Technologies. HCV RNA is normalized to GAPDH RNA levels in drug-treated cells, which is detected and quantified using the Human GAPDH Endogenous Control Mix (Applied Biosystems, AB 4310884E). […] Chemical agent cytotoxicity is evaluated using an MTS assay according to the manufacturer's directions (Promega). […]

Compound	EC50 [µM]
[2H][C@@]1(O)[C@@H](CO[P@@](=O)(N[C@@H](C)C(=O)OC(C)C)Oc2ccccc2)O[C@@H](n2ccc(=O)[nH]c2=O)[C@]1(C)F [Example 1]	0.1 to 1
[2H][C@]1(CO[P@@](=O)(N[C@@H](C)C(=O)OC(C)C)Oc2ccccc2)O[C@@H](n2ccc(=O)[nH]c2=O)[C@](C)(F)[C@@H]1O [Example 2]	0.1 to 1
[2H]C([2H])(O[P@@](=O)(N[C@@H](C)C(=O)OC(C)C)Oc1ccccc1)[C@H]1O[C@@H](n2ccc(=O)[nH]c2=O)[C@](C)(F)[C@@H]1O [Example 3]	0.1 to 1
[2H]C([2H])(O[P@@](=O)(N[C@@H](C)C(=O)OC(C)C)Oc1ccccc1)[C@@]1([2H])O[C@@H](n2ccc(=O)[nH]c2=O)[C@](C)(F)[C@@H]1O [Example 4]	0.1 to 1

— US9718851B2, “Deuterated nucleoside/tide derivatives” (Enanta Pharmaceuticals, Inc., priority 2014, dated 2017)
